Experimental data reported in PubChem BioAssay (NCI).
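Tested at 5 concentrations; 48 h exposure; 96-well plates; endpoints linearly interpolated, else capped at highest concentration. The concentration for full growth arrest is given as TGI.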

Columns and labels:
Experiment in all cases: DTP human tumour cell line panel, 48 h
[1] = test system: MOLT-4 leukemia
[2] = test system: SNB-75 CNS
[3] = test system: HCT-15 colon
[4] = test system: OVCAR-3 ovarian
[5] = test system: K-562 leukemia
[6] = test system: SW-620 colon
[7] = test system: BT-549 breast
[8] = test system: ACHN renal
[9] = test system: HT29 colon
[10] = test system: OVCAR-4 ovarian
[11] = test system: SK-MEL-28 melanoma
[12] = test system: OVCAR-8 ovarian
[13] = test system: SR leukemia
[14] = test system: SN12C renal
[15] = test system: OVCAR-5 ovarian
[16] = test system: MCF7 breast
[17] = test system: HL-60(TB) leukemia
[18] = test system: SF-539 CNS
[19] = test system: NCI-H23 lung
[20] = test system: NCI-H460 lung
[21] = test system: EKVX NSCLC
[22] = test system: SNB-19 CNS
[23] = test system: A549 NSCLC
[24] = test system: SF-268 CNS
[25] = test system: LOX IMVI melanoma
[26] = test system: CAKI-1 renal
[27] = test system: UO-31 renal
[28] = test system: UACC-62 melanoma
[29] = test system: HCC-2998 colon
[30] = test system: TK-10 renal
[31] = test system: HS 578T breast
[32] = test system: NCI/ADR-RES ovarian
[33] = test system: SK-OV-3 ovarian
[34] = test system: A498 renal
[35] = test system: U251 CNS
[36] = test system: M14 melanoma
[37] = test system: NCI-H226 lung
[38] = test system: 786-0 renal
[39] = test system: RPMI-8226 leukemia
[40] = test system: PC-3 prostate

Measured: TGI

COc1ccc2c(c1)C/C(=C\c1ccc(O)c(OC)c1)C2=O
> 100 µM: [1] | [2] | [3] | [4] | [5] | [6] | [7] | [8] | [9] | [10] | [11] | [12] | [13] | [14] | [15] | [16] | [17] | [18] | [19] | [20] | [21] | [22] | [23] | [24] | [25] | [26] | [27] | [28] | [29] | [30] | [31] | [32] | [33] | [34] | [35] | [36] | [37] | [38] | [39] | [40]
